The record followed here is PMC5830302 (ACS chemical biology, 2017).

For this assay, the target named is ClbQ (Escherichia coli, UniProt Q0P7K7). The assay is described as follows: DTNB-based continuous spectrophotometric thioesterase assay. Format: biochemical. Conditions: 100 mM Tris HCl, pH 7.4, 20 mM NaCl, 100 uM DTNB, 100 nM ClbQ, 37 °C.

Turning to `CC(=O)NCCSC(C)=O` [acetyl-SNAC], the “DTNB-based continuous spectrophotometric thioesterase assay (412 nm)” value is given as “ClbQ has thioesterase activity with model straight-chain acyl-SNACs”.

Turning to `CCCCCCCCCCCCCC(=O)SCCNC(C)=O` [myristoyl-SNAC], the “DTNB-based continuous spectrophotometric thioesterase assay (412 nm)” value is “ClbQ has thioesterase activity with model straight-chain acyl-SNACs”.
